Results taken from patent US20200308220A1, “AROMATIC-CATIONIC PEPTIDES CONJUGATED TO AN[…] THEIR USE IN TREATING COMPLEX REGIONAL PAIN SYNDROME” (priority 2015, published 2020).
Where a SMILES comes first, the peptide text is derived from it.

Experiments:
δ opioid receptor (DOR) = molecular target: T1, δ opioid receptor (DOR) (Mus musculus, UniProt P32300); experiment: Inhibition of electrically evoked contractions of the mouse vas deferens (MVD); type: cell-based
T1 construct: the guinea pig ileum (GPI) and the mouse vas deferens (MVD); from tissue; host or cells: mouse vas deferens
Procedure: (§1) Peptide conjugates of Table 5 were tested in functional assays based on inhibition of electrically evoked contractions of the guinea pig ileum (GPI) and the mouse vas deferens (MVD). The GPI assay is representative for μ opioid receptor (MOR) interactions, whereas in the MVD assay opioid effects are primarily mediated by the δ opioid receptor (DOR). The assays were carried out as described in DiMaio et al., J. Med. Chem. (1982) 25, 1432-1438. Binding affinities for μ and δ receptors were determined by displacing, respectively, [^3H]DAMGO and [^3H]DSLET from rat brain membrane binding sites (see Schiller et al., Biochem. Biophys. Res. Commun. (1978) 85, 1332-1338).

δ receptors = molecular target: T2, δ receptors (Rattus norvegicus, UniProt P33533); experiment: Receptor binding, displacement of [3H]DSLET from rat brain membrane binding sites
T2 construct: from tissue; host or cells: rat brain membranes
Procedure: as §1

μ receptors = molecular target: T3, μ receptors (Rattus norvegicus, UniProt P33535); experiment: Receptor binding, displacement of [3H]DAMGO from rat brain membrane binding sites
T3 construct: from tissue; host or cells: rat brain membranes
Procedure: as §1

CPIP rats = experiment: Chronic post-ischemia pain (CPIP) rat model of CRPS-I, reversal of mechanical allodynia
Procedure: H-Dmt-D-Arg-Phe-Lys(NH-TEMPO)-NH2 was tested in a chronic post-ischemia pain (CPIP) rat model (see Coderre et al., Pain (2004) 112, 94-105) of CRPS-I in comparison with [Dmt^1]DALDA and morphine (subcutaneous (s.c.) administration). The analgesic potencies (ED50 values) of the compounds were determined based on their ability to reverse mechanical allodynia in CPIP rats (Table 6).

T2 sequence (P33533 whole entry): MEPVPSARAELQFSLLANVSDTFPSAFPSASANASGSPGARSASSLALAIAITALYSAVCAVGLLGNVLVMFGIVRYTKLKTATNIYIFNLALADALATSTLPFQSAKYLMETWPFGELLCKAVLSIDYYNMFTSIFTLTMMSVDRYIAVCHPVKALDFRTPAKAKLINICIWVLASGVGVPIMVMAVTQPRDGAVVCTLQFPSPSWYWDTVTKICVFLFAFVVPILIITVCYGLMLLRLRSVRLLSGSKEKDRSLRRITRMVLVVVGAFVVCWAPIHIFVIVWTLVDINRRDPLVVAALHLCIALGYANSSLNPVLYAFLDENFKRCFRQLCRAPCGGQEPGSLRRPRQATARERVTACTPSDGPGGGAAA
T1 sequence (P32300 whole entry): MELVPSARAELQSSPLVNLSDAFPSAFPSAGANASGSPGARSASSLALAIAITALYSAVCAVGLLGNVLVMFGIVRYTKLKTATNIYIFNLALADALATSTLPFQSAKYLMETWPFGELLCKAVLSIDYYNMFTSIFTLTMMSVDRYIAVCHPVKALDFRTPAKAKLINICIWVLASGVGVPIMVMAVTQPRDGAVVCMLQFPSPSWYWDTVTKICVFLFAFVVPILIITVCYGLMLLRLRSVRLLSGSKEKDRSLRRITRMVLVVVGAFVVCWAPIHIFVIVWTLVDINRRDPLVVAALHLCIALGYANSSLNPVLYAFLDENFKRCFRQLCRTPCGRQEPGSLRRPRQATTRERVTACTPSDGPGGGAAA
T3 sequence (P33535 whole entry): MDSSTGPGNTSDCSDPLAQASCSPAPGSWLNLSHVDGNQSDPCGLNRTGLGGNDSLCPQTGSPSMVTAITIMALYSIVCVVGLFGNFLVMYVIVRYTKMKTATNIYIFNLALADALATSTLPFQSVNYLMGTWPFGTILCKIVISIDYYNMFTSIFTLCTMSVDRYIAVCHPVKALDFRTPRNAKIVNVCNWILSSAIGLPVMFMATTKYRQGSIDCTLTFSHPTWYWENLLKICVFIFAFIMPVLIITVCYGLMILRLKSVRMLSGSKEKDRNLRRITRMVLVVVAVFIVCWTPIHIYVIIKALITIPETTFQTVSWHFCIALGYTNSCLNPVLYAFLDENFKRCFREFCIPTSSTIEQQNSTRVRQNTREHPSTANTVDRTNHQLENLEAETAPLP

| SMILES | IC50 (δ opioid receptor (DOR)) [nM] | Ki (δ receptors) [nM] | Ki (μ receptors) [nM] | ED50 (CPIP rats; Rattus norvegicus, sc, read-out: ED50 ± SEM (analgesic potency)) [mg/kg] | Potency Ratio (CPIP rats; relative to morphine (=1), CPIP rats, s.c.) | ED50 ± SEM (analgesic potency) (CPIP rats; reversal of mechanical allodynia in CPIP rats, s.c. administration) [mg/kg] | crossing the blood-brain barrier (CPIP rats; inferred from centrally mediated analgesic effect after s.c. dosing) |
| --- | --- | --- | --- | --- | --- | --- | --- |
| Cc1cc(O)cc(C)c1C[C@H](N)C(=O)N[C@H](CCCNC(=N)N)C(=O)N[C@@H](Cc1ccccc1)C(=O)N[C@@H](CCCCN)C(=O)NCCC(=O)NC1CC(C)(C)N([O])C(C)(C)C1 [H-Dmt-D-Arg-Phe-Lys-NH—(CH2)2—CO—NH-TEMPO] (HELM PEPTIDE1{[Cc1cc(O)cc(C)c1C[C@H](N)C(=O)[*:2]].[dR].F.K.[bAla].[CC1(C)CC(N[*:1])CC(C)(C)N1[O]]}$$$$V2.0) | 262 | 2.15 | 4.56 |  |  |  |  |
| CN1CC[C@]23c4c5ccc(O)c4O[C@H]2[C@@H](O)C=C[C@H]3[C@H]1C5 [morphine] |  |  |  | 1.55 ± 0.664 | 1 |  |  |
| Cc1cc(O)cc(C)c1C[C@H](N)C(=O)N[C@H](CCCNC(=N)N)C(=O)N[C@@H](Cc1ccccc1)C(=O)N[C@@H](CCCCN)C(N)=O [H-Dmt-D-Arg-Phe-Lys-NH2] |  |  |  |  |  | 0.103 ± 0.046 |  |
| Cc1cc(O)cc(C)c1C[C@H](N)C(=O)N[C@H](CCCNC(=N)N)C(=O)N[C@@H](Cc1ccccc1)C(=O)N[C@@H](CCCCNC(=O)[C@@]1(C)CCc2c(C)c(O)c(C)c(C)c2O1)C(N)=O [H-Dmt-D-Arg-Phe-Lys(Tro[R])-NH2] | 0.847 | 3.64 | 0.273 |  |  |  |  |
| Cc1cc(O)cc(C)c1C[C@H](N)C(=O)N[C@H](CCCNC(=N)N)C(=O)N[C@@H](Cc1ccccc1)C(=O)NC(CCCCNC1CC(C)(C)N([O])C(C)(C)C1)C(N)=O (stereo partly drawn) [H-Dmt-D-Arg-Phe-Lys(NH-TEMPO)-NH2] | 1.15 | 30.4 | 0.263 |  |  |  | capable of crossing the blood-brain barrier |
| Cc1cc(O)cc(C)c1C[C@H](N)C(=O)N[C@H](CCCNC(=N)N)C(=O)N[C@@H](Cc1ccccc1)C(=O)N[C@@H](CCCCNC(=O)[C@]1(C)CCc2c(C)c(O)c(C)c(C)c2O1)C(N)=O [H-Dmt-D-Arg-Phe-Lys(Tro[S])-NH2, H-Dmt-D-Arg-Phe-Lys(Tro[S])—NH2] | 3.76 | 3.48 | 0.252 |  |  |  |  |
